Assay results reported in paper PMC6265332, “A scalable peptide-GPCR language for engineering multicellular communication” (Nature Communications, 2018).
Where a SMILES comes first, the peptide text is derived from it.

Tested on: fungal mating GPCRs (Ste2-like, xy.Ste2) expressed in S. cerevisiae strain JTy014
Type: cell-based, Ascomycete species of the code; expressed in S. cerevisiae
Settings: GPCR of the same code; for Bttm (basal activation) / Span / Top (maximal activation): fit parameter of the dose-response curve, A600-normalised RFP fluorescence, 8 h, triplicate; for Fold Change: fold activation, peptide-treated maximum over water-treated A600-normalised fluorescence; for Hill Slope: four-parameter fit of the dose-response curve (dynamic range)

Compound	Bttm (basal activation)	Span	Top (maximal activation)	Fold Change	Hill Slope
CC[C@H](C)[C@H](NC(=O)[C@H](Cc1c[nH]c2ccccc12)NC(=O)CN)C(=O)NCC(=O)N[C@@H](CCCNC(=N)N)C(=O)N[C@@H](CS)C(=O)NCC(=O)N[C@H](C(=O)N1CCC[C@H]1C(=O)NCC(=O)N[C@@H](CO)C(=O)N[C@@H](CO)C(=O)N[C@@H](CS)C(=O)O)C(C)C [Bm] (H-GWIGRCGVPGSSC-OH; N-terminus and C-terminus assumed)	30.3	128.4	158.8	5.2	1.2
FCWRPGQPCG [Pd, mature mating peptide ligand 1, Pseudogymnoascus destructans]	28.8	161.2	190.0	6.6	0.7
KPHWTTYGYYEPQ [Cp, mature mating peptide ligand 1, Candida parapsilosis]	36.2	217.8	254.0	7.0	0.8
QWCR---IHGQSCW [Nc, mature mating peptide ligand 1, Neurospora crassa]	27.6	259.2	286.7	10.4	0.6
WCGHIGQGC [Pr, mature mating peptide ligand 1, Penicillium chrysogenum]	27.9	179.4	207.3	7.4	0.6
WCGRPGQPC [Bc, mature mating peptide ligand 1, Botrytis cinerea]	28.6	323.3	351.9	12.3	0.7
WCMRPGQPCW [Bb, mature mating peptide ligand 1, Beauvaria bassiana]	25.2	218.9	244.1	9.7	1.0
WCTRPGQGC [Pb, mature mating peptide ligand 1, Paracoccidioides brasiliensis]	20.2	196.9	217.1	10.8	0.5
WCYRIGEPCW [Hj, mature mating peptide ligand 1, Hypocrea jecorina]	53.0	376.5	429.5	8.1	0.6
